Patent publication US11000033B2, “Ketone or oxime compound, and herbicide” (NISSAN CHEMICAL CORPORATION, priority 2014, dated 2021)

Experiments:
Format in all cases: in vivo
wheat [1] = test: Test Example 4: effect on crop by soil treatment (symbol e); conditions: application herbicide amount 320 g/ha
In short: (§1)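 Steps: fill box with sterilized diluvial soil; sow seed spot-like; cover with ~1.5 cm soil; grow in greenhouse (25° C. to 30° C.).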

soybean [2] = test: Test Example 5: effect on crop by foliage application, plastic box (symbol d); conditions: 320 g/ha, 3 weeks after application
In short: (§2)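 A greenhouse held between 25° C. and 30° C. was used to grow plants sown spot-wise, beneath ~1.5 cm of soil, in boxes of sterilized diluvial soil.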

Galium spurium [3] = test: Test Example 4: herbicidal effect by soil treatment (symbol Q); conditions: application herbicide amount 320 g/ha
In short: (§3)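 Seeds were sown in sterilized diluvial soil, covered with about 1.5 cm of soil, and the soil surface was sprayed with a water-diluted emulsion of the compound at a predetermined rate. Plants grew in a greenhouse at 25° C. to 30° C.; effects were scored visually 3 weeks after application.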

Stellaria media = test: Test Example 4: herbicidal effect by soil treatment (symbol P); conditions: application herbicide amount 320 g/ha
In short: as §3

rice plant = test: Test Example 5: effect on crop by foliage application, plastic box (symbol b); conditions: 320 g/ha, 3 weeks after application
In short: as §2

Abutilon theophrasti = test: Test Example 4: herbicidal effect by soil treatment (symbol M); conditions: application herbicide amount 320 g/ha
In short: as §3

Avena fatua = test: Test Example 4: herbicidal effect by soil treatment (symbol I); conditions: application herbicide amount 320 g/ha
In short: as §3

Digitaria ciliaris = test: Test Example 5: herbicidal effect by foliage application, plastic box (symbol F); conditions: 320 g/ha, 3 weeks after application
In short: (§4)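 Effect is rated 3 weeks after a foliar spray of water-diluted emulsion concentrate at a predetermined herbicide amount. Plants had grown 14 days in a 25° C. to 30° C. greenhouse from seed in sterilized diluvial soil.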

Scirpus juncoides = test: Test Example 1: herbicidal activity, application before weed generation in submerged conditions (symbol B); conditions: application herbicide amount 320 g/ha
In short: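 Ratings (5: ≥90%, near complete withering; 4: 70–<90%; 3: 40–<70%; 2: 20–<40%; 1: 5–<20%; 0: ≤5%) were assigned 3 weeks after the diluted emulsion was applied to the water surface of freshly sown, submerged pots.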

[4] = system: Echinochloa crus-galli var. crus-galli; test: Test Example 5: herbicidal effect by foliage application, plastic box (symbol H); conditions: 320 g/ha, 3 weeks after application
In short: as §4

Amaranthus retroflexus [5] = test: Test Example 5: herbicidal effect by foliage application, plastic box (symbol N); conditions: 320 g/ha, 3 weeks after application
In short: as §4

rice = test: Test Example 4: effect on crop by soil treatment (symbol b); conditions: application herbicide amount 320 g/ha
In short: as §1

corn = test: Test Example 4: effect on crop by soil treatment (symbol c); conditions: application herbicide amount 320 g/ha
In short: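 Grown at 25° C. to 30° C. in a greenhouse, the crops came from seed sown spot-wise in sterilized diluvial soil under roughly 1.5 cm of covering soil.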

Galium spurium [6] = test: Test Example 5: herbicidal effect by foliage application, plastic box (symbol Q); conditions: 320 g/ha, 3 weeks after application
In short: as §4

Setaria viridis [7] = test: Test Example 5: herbicidal effect by foliage application, plastic box (symbol G); conditions: 320 g/ha, 3 weeks after application
In short: as §4

Alopecurus myosuroides [8] = test: Test Example 5: herbicidal effect by foliage application, plastic box (symbol J); conditions: 320 g/ha, 3 weeks after application
In short: as §4

Alopecurus myosuroides [9] = test: Test Example 4: herbicidal effect by soil treatment (symbol J); conditions: application herbicide amount 320 g/ha
In short: as §3

Setaria viridis [10] = test: Test Example 4: herbicidal effect by soil treatment (symbol G); conditions: application herbicide amount 320 g/ha
In short: as §3

wheat [11] = test: Test Example 5: effect on crop by foliage application, plastic box (symbol e); conditions: 320 g/ha, 3 weeks after application
In short: as §2

soybean [12] = test: Test Example 4: effect on crop by soil treatment (symbol d); conditions: application herbicide amount 320 g/ha
In short: as §1

Lolium multiflorum Lam. = test: Test Example 4: herbicidal effect by soil treatment (symbol K); conditions: application herbicide amount 320 g/ha
In short: as §3

Amaranthus retroflexus [13] = test: Test Example 4: herbicidal effect by soil treatment (symbol N); conditions: application herbicide amount 320 g/ha
In short: as §3

CON=C(C)CC1CC(OC(=O)SC(C)(C)C)=C(c2c(C)cc(-c3ccc(Cl)cc3)cc2C)C1=O (stereo not drawn) [6-082]
e: wheat, effect on crop grade (wheat [1]): 0 (Herbicidal ratio of 5% or lower (almost no effect))
d: soybean, effect on crop (criteria of Test Example 1) (soybean [2]): 0 (Herbicidal ratio of 5% or lower (almost no effect))
Q: Galium spurium, herbicidal effect grade (Galium spurium [3]): 0 (Herbicidal ratio of 5% or lower (almost no effect))
P: Stellaria media, herbicidal effect grade (Stellaria media): 0 (Herbicidal ratio of 5% or lower (almost no effect))
b: directly sowed rice plant, effect on crop (criteria of Test Example 1) (rice plant): 5 (Herbicidal ratio of 90% or more (almost completely withered))
M: Abutilon theophrasti, herbicidal effect grade (Abutilon theophrasti): 2 (Herbicidal ratio of 20% or higher and lower than 40%)
I: Avena fatua, herbicidal effect grade (Avena fatua): 3 (Herbicidal ratio of 40% or higher and lower than 70%)
F: Digitaria ciliaris, herbicidal effect (criteria of Test Example 1) (Digitaria ciliaris): 5 (Herbicidal ratio of 90% or more (almost completely withered))
Herbicidal effect grade, B: Scirpus juncoides (Scirpus juncoides): 4 (Herbicidal ratio of 70% or higher and lower than 90%)
H: Echinochloa crus-galli var. crus-galli, herbicidal effect (criteria of Test Example 1) [4]: 5 (Herbicidal ratio of 90% or more (almost completely withered))
N: Amaranthus retroflexus, herbicidal effect (criteria of Test Example 1) (Amaranthus retroflexus [5]): 1 (Herbicidal ratio of 5% or higher and lower than 20%)
b: directly sowed rice plant, effect on crop grade (rice): 1 (Herbicidal ratio of 5% or higher and lower than 20%)
c: corn, effect on crop grade (corn): 0 (Herbicidal ratio of 5% or lower (almost no effect))
Q: Galium spurium, herbicidal effect (criteria of Test Example 1) (Galium spurium [6]): 4 (Herbicidal ratio of 70% or higher and lower than 90%)
G: Setaria viridis, herbicidal effect (criteria of Test Example 1) (Setaria viridis [7]): 5 (Herbicidal ratio of 90% or more (almost completely withered))
J: Alopecurus myosuroides, herbicidal effect (criteria of Test Example 1) (Alopecurus myosuroides [8]): 5 (Herbicidal ratio of 90% or more (almost completely withered))
J: Alopecurus myosuroides, herbicidal effect grade (Alopecurus myosuroides [9]): 5 (Herbicidal ratio of 90% or more (almost completely withered))
G: Setaria viridis, herbicidal effect grade (Setaria viridis [10]): 5 (Herbicidal ratio of 90% or more (almost completely withered))
e: wheat, effect on crop (criteria of Test Example 1) (wheat [11]): 5 (Herbicidal ratio of 90% or more (almost completely withered))
d: soybean, effect on crop grade (soybean [12]): 0 (Herbicidal ratio of 5% or lower (almost no effect))
K: Lolium multiflorum Lam., herbicidal effect grade (Lolium multiflorum Lam.): 5 (Herbicidal ratio of 90% or more (almost completely withered))

CON=C(C)CC1CC(O)=C(c2c(F)cc(-c3ccccc3)cc2OC)C1=O (stereo not drawn) [6-107]
Effect on crop grade, e: wheat (wheat [1]): 4 (Herbicidal ratio of 70% or higher and lower than 90%)
d: soybean, effect on crop (criteria of Test Example 1) (soybean [2]): 1 (Herbicidal ratio of 5% or higher and lower than 20%)
Herbicidal effect grade, Q: Galium spurium (Galium spurium [3]): 2 (Herbicidal ratio of 20% or higher and lower than 40%)
Herbicidal effect grade, P: Stellaria media (Stellaria media): 2 (Herbicidal ratio of 20% or higher and lower than 40%)
b: directly sowed rice plant, effect on crop (criteria of Test Example 1) (rice plant): 5 (Herbicidal ratio of 90% or more (almost completely withered))
Herbicidal effect grade, M: Abutilon theophrasti (Abutilon theophrasti): 4 (Herbicidal ratio of 70% or higher and lower than 90%)
Herbicidal effect grade, I: Avena fatua (Avena fatua): 3 (Herbicidal ratio of 40% or higher and lower than 70%)
F: Digitaria ciliaris, herbicidal effect (criteria of Test Example 1) (Digitaria ciliaris): 5 (Herbicidal ratio of 90% or more (almost completely withered))
Herbicidal effect grade, B: Scirpus juncoides (Scirpus juncoides): 5 (Herbicidal ratio of 90% or more (almost completely withered))
H: Echinochloa crus-galli var. crus-galli, herbicidal effect (criteria of Test Example 1) [4]: 5 (Herbicidal ratio of 90% or more (almost completely withered))
N: Amaranthus retroflexus, herbicidal effect (criteria of Test Example 1) (Amaranthus retroflexus [5]): 2 (Herbicidal ratio of 20% or higher and lower than 40%)
Effect on crop grade, b: directly sowed rice plant (rice): 5 (Herbicidal ratio of 90% or more (almost completely withered))
Effect on crop grade, c: corn (corn): 0 (Herbicidal ratio of 5% or lower (almost no effect))
Q: Galium spurium, herbicidal effect (criteria of Test Example 1) (Galium spurium [6]): 5 (Herbicidal ratio of 90% or more (almost completely withered))
G: Setaria viridis, herbicidal effect (criteria of Test Example 1) (Setaria viridis [7]): 5 (Herbicidal ratio of 90% or more (almost completely withered))
J: Alopecurus myosuroides, herbicidal effect (criteria of Test Example 1) (Alopecurus myosuroides [8]): 5 (Herbicidal ratio of 90% or more (almost completely withered))
Herbicidal effect grade, J: Alopecurus myosuroides (Alopecurus myosuroides [9]): 5 (Herbicidal ratio of 90% or more (almost completely withered))
Herbicidal effect grade, G: Setaria viridis (Setaria viridis [10]): 5 (Herbicidal ratio of 90% or more (almost completely withered))
e: wheat, effect on crop (criteria of Test Example 1) (wheat [11]): 5 (Herbicidal ratio of 90% or more (almost completely withered))
Effect on crop grade, d: soybean (soybean [12]): 0 (Herbicidal ratio of 5% or lower (almost no effect))
Herbicidal effect grade, K: Lolium multiflorum Lam. (Lolium multiflorum Lam.): 1 (Herbicidal ratio of 5% or higher and lower than 20%)

CON=C(C)C(C)C1CC(O)=C(c2c(C)cc(Br)cc2OC)C1=O (stereo not drawn) [6-113]
Effect on crop grade, e: wheat (wheat [1]): 0 (Herbicidal ratio of 5% or lower (almost no effect))
d: soybean, effect on crop (criteria of Test Example 1) (soybean [2]): 0 (Herbicidal ratio of 5% or lower (almost no effect))
Herbicidal effect grade, Q: Galium spurium (Galium spurium [3]): 0 (Herbicidal ratio of 5% or lower (almost no effect))
Herbicidal effect grade, P: Stellaria media (Stellaria media): 0 (Herbicidal ratio of 5% or lower (almost no effect))
b: directly sowed rice plant, effect on crop (criteria of Test Example 1) (rice plant): 5 (Herbicidal ratio of 90% or more (almost completely withered))
Herbicidal effect grade, I: Avena fatua (Avena fatua): 0 (Herbicidal ratio of 5% or lower (almost no effect))
F: Digitaria ciliaris, herbicidal effect (criteria of Test Example 1) (Digitaria ciliaris): 5 (Herbicidal ratio of 90% or more (almost completely withered))
Herbicidal effect grade, B: Scirpus juncoides (Scirpus juncoides): 0 (Herbicidal ratio of 5% or lower (almost no effect))
H: Echinochloa crus-galli var. crus-galli, herbicidal effect (criteria of Test Example 1) [4]: 5 (Herbicidal ratio of 90% or more (almost completely withered))
N: Amaranthus retroflexus, herbicidal effect (criteria of Test Example 1) (Amaranthus retroflexus [5]): 0 (Herbicidal ratio of 5% or lower (almost no effect))
Effect on crop grade, b: directly sowed rice plant (rice): 5 (Herbicidal ratio of 90% or more (almost completely withered))
Effect on crop grade, c: corn (corn): 1 (Herbicidal ratio of 5% or higher and lower than 20%)
Herbicidal effect grade, N: Amaranthus retroflexus (Amaranthus retroflexus [13]): 0 (Herbicidal ratio of 5% or lower (almost no effect))
Q: Galium spurium, herbicidal effect (criteria of Test Example 1) (Galium spurium [6]): 0 (Herbicidal ratio of 5% or lower (almost no effect))
G: Setaria viridis, herbicidal effect (criteria of Test Example 1) (Setaria viridis [7]): 5 (Herbicidal ratio of 90% or more (almost completely withered))
J: Alopecurus myosuroides, herbicidal effect (criteria of Test Example 1) (Alopecurus myosuroides [8]): 5 (Herbicidal ratio of 90% or more (almost completely withered))
Herbicidal effect grade, J: Alopecurus myosuroides (Alopecurus myosuroides [9]): 5 (Herbicidal ratio of 90% or more (almost completely withered))
Herbicidal effect grade, G: Setaria viridis (Setaria viridis [10]): 5 (Herbicidal ratio of 90% or more (almost completely withered))
e: wheat, effect on crop (criteria of Test Example 1) (wheat [11]): 5 (Herbicidal ratio of 90% or more (almost completely withered))
Effect on crop grade, d: soybean (soybean [12]): 0 (Herbicidal ratio of 5% or lower (almost no effect))
Herbicidal effect grade, K: Lolium multiflorum Lam. (Lolium multiflorum Lam.): 5 (Herbicidal ratio of 90% or more (almost completely withered))
